Experimental data published in the CheMixHub drug solubility set.

Assay: xn = mol fraction of the nth substance listed, in the solute-free solvent

O=C(O)CC(O)C(=O)O (centres undefined) + C1CCOC1 + CC#N
solubility (g/100 g solution)
Conditions | 278.15 K | 283.15 K | 288.15 K | 293.15 K | 298.15 K | 303.15 K | 308.15 K | 313.15 K | 318.15 K | 323.15 K
x2 = 0.1246 | 19.5 | 21.2 | 23.2 | 25.3 | 26.9 | 29.2 | 31.6 | 34.1 | 36.6 | 39.6
x2 = 0.1961 | 27.1 | 28.6 | 30.5 | 32.5 | 34.7 | 37.1 | 39.2 | 41.7 | 44.3 | 47
x2 = 0.2751 | 29.8 | 32 | 34 | 36 | 38 | 40.2 | 42.3 | 45 | 47.2 | 49.9
x2 = 0.3628 | 33.2 | 34.9 | 36.9 | 38.9 | 40.9 | 43 | 45.1 | 47.7 | 49.9 | 52.5
x2 = 0.4606 | 34.6 | 36 | 37.8 | 39.7 | 41.5 | 43.5 | 45.9 | 48.1 | 50.5 | 53.4
x2 = 0.5705 | 35.7 | 37.3 | 39.1 | 41.1 | 43.2 | 45.5 | 47.8 | 50.2 | 52.9 | 55.6
x2 = 0.6949 | 37.8 | 39 | 40.6 | 42.3 | 44.3 | 46 | 48.3 | 50.3 | 52.7 | 55.5

Cc1c(Br)cccc1C(=O)O + C1CCOC1 + CCOC(C)=O
solubility (g/100 g solution)
Conditions | x2 = 0.161 | x2 = 0.318 | x2 = 0.471 | x2 = 0.62 | x2 = 0.765 | x2 = 0.907
278.15 K | 11.6 | 16.7 | 21.6 | 26.2 | 30 | 35
283.15 K | 12.9 | 18.1 | 23.4 | 28.1 | 32 | 37.2
288.15 K | 14.2 | 19.7 | 24.9 | 29.9 | 33.8 | 39.1
293.15 K | 15.4 | 21.3 | 26.6 | 31.7 | 35.6 | 41.2
298.15 K | 16.9 | 22.7 | 28.2 | 33.4 | 37.3 | 43
303.15 K | 18.3 | 24.4 | 30 | 35.3 | 39 | 44.9
308.15 K | 19.8 | 26 | 31.6 | 36.9 | 40.6 | 46.5
313.15 K | 21.6 | 27.6 | 33.3 | 38.6 | 42.1 | 48.1
318.15 K | 23.4 | 29.4 | 35.1 | 40.2 | 43.6 | 49.6
323.15 K | 25.3 | 31.3 | 36.7 | 41.8 | 44.9 | 51.1
328.15 K | 27.6 | 33.3 | 38.5 | 43.6 | 46.2 | 52.5

O=C(O)CC(O)C(=O)O (centres undefined) + C1CCOC1 + CCOC(C)=O
solubility (g/100 g solution)
Conditions | 278.15 K | 283.15 K | 288.15 K | 293.15 K | 298.15 K | 303.15 K | 308.15 K | 313.15 K | 318.15 K | 323.15 K
x2 = 0.234 | 9.32 | 10.1 | 11 | 12 | 13.2 | 14.4 | 15.8 | 17.2 | 18.6 | 20.4
x2 = 0.3437 | 13.6 | 14.7 | 15.9 | 17.2 | 18.7 | 20.4 | 22.1 | 24 | 26.1 | 28.7
x2 = 0.4489 | 19.3 | 20.5 | 21.8 | 23.2 | 24.7 | 26.3 | 27.9 | 29.9 | 31.9 | 34.2
x2 = 0.55 | 24.6 | 26 | 27.6 | 29 | 30.8 | 32.7 | 34.6 | 36.6 | 39.2 | 41.8
x2 = 0.647 | 27.6 | 28.9 | 30.5 | 32.2 | 34.2 | 36.3 | 38.4 | 40.8 | 43.5 | 46.4
x2 = 0.7403 | 30.1 | 31.8 | 33.3 | 34.9 | 36.9 | 38.8 | 40.9 | 43.3 | 46 | 48.7
x2 = 0.8302 | 34.8 | 36 | 37.7 | 39 | 40.7 | 42.6 | 44.4 | 46.4 | 48.7 | 51.4

CN1CCN(C2=Nc3cc(Cl)ccc3Nc3ccccc32)CC1 + C1CCOC1 + Cc1ccccc1
solubility (g/100 g solution)
Conditions | x2 = 0.1243 | x2 = 0.242 | x2 = 0.3539 | x2 = 0.4601 | x2 = 0.5602 | x2 = 0.6569 | x2 = 0.749 | x2 = 0.8361 | x2 = 0.9197
293.15 K | 3.93 | 5.65 | 8.04 | 9.98 | 13 | 15.3 | 17.5 | 20.9 | 23.9
298.15 K | 4.3 | 6.76 | 8.83 | 11.7 | 14.2 | 16.5 | 20.5 | 22.2 | 25.6
303.15 K | 5.04 | 7.34 | 9.84 | 13.1 | 15.8 | 18.8 | 21.9 | 25 | 28.1
308.15 K | 6.11 | 8.39 | 11.2 | 14.4 | 17.5 | 20.6 | 24 | 26 | 29.8
313.15 K | 7.2 | 9.63 | 12.2 | 16.4 | 19.5 | 22.7 | 25.9 | 29 | 31.9
318.15 K | 8.19 | 10.7 | 14.6 | 18.1 | 21.4 | 24.9 | 27.9 | 30.5 | 33.7
323.15 K | 8.82 | 12.2 | 15.9 | 20.1 | 23.6 | 27 | 29.6 | 33.1 | 36.6
